For 21 compounds, IC50 and EC50 results are on record in patent publication US11066414B2, “Cot modulators and methods of use thereof” (Gilead Sciences, Inc., priority 2015, dated 2021).

Structures are written as SMILES. Read-outs that look alike come from different tables or passages of the source.

Assay [1] concerns the target Human Cot (Homo sapiens (Human), UniProt P41279). Nature of the assay: High Throughput Cot Biochemical Assay.
Assay [2] relates to TNFα. Nature of the assay: Cot Monocyte TNFα Cell Based Assay.
Where [3] appears, read: IC50 HTRF, Cot HTRF (TR-FRET) biochemical assay.
[4] abbreviates: Homo sapiens, Monocyte, read-out: EC50 TNF, LPS-stimulated human monocytes, TNFα.

Sequence of Human Cot (P41279 30-397): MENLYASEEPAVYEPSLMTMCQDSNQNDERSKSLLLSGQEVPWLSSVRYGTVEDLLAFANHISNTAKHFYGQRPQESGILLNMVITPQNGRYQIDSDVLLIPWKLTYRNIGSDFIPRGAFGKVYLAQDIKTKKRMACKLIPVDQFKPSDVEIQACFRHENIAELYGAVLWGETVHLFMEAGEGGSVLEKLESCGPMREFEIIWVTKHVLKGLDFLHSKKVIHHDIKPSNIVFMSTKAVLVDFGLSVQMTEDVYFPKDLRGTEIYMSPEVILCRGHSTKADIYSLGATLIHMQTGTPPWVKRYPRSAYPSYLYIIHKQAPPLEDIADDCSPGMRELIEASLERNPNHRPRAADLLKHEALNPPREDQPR

As usually defined, the IC50 is the concentration at which inhibition is half-maximal. One may read the EC50 as the concentration giving half of the maximal effect. In turn, `Cc1nc(F)ccc1[C@H](Nc1cc(F)c2ncc(C#N)c(NCC(C)(C)C)c2c1)c1cn(C2(C(N)=O)CCC2)nn1` [Example 487, (S)-1-(4-(((3-cyano-8-fluoro-4-(neopentyl-amino)quinolin-6-yl)amino)(6-fluoro-2-methylpyridin-3-yl)methyl)-1H-1,2,3-triazol-1-yl)cyclobutane-1-carboxamide] had an IC50 in assay [1] (setting [3]) of 1 nM. In addition, the EC50 in assay [2] (setting [4]) turned out to be 245 nM.
The like results for `CC(C)(C)CNc1c(C#N)cnc2c(C#N)cc(N[C@H](c3cn(C4(C(F)(F)F)CC4)nn3)c3cncc4ccccc34)cc12` [Example 673, (S)-6-((isoquinolin-4-yl(1-(1-(trifluoromethyl)cyclopropyl)-1H-1,2,3-triazol-4-yl)methyl)amino)-4-(neopentylamino)quinoline-3,8-dicarbonitrile] were, in that order, 142 nM and 808 nM.
For the compound `Cc1nc(F)ccc1[C@H](Nc1cc(C#N)c2ncc(C#N)c(NCC(C)(C)C)c2c1)c1cn(CC(F)F)nn1` [Example 634, (S)-6-(((1-(2,2-dinuoroethyl)-1H-1,2,3-triazol-4-yl)(6-fluoro-2-methylpyridin-3-yl)methyl)amino)-4-(neopentylamino)quinoline-3,8-dicarbonitrile], the IC50 in assay [1] (read-out: IC50 HTRF, Cot HTRF (TR-FRET) biochemical assay) amounted to 2 nM. For the same compound, the EC50 in assay [2] (read-out: EC50 TNF, LPS-stimulated human monocytes, TNFα) amounted to 43 nM.
The compound `CC(C)(C)CNc1c(C#N)cnc2c(Cl)cc(N[C@H](c3cn(C4(C(F)F)CC4)nn3)c3cccc4ncsc34)cc12` [Example 421, (S)-6-((benzo[d]thiazol-7-yl(1-(1-(difluoromethyl)cyclopropyl)-1H-1,2,3-triazol-4-yl)methyl)amino)-8-chloro-4-(neopentylamino)quinoline-3-carbonitrile] registered an IC50 in assay [1] (setting [3]) of 4 nM. The EC50 in assay [2] (setting [4]) came to 100 nM.
On the same counts, the results for `CC(C)(C)CNc1c(C#N)cnc2c(Br)cc(N[C@H](c3cn(C4CC4)nn3)c3cccc4c3C(=O)NC4)cc12` [Example 78, (S)-8-bromo-6-(((1-cyclopropyl-1H-1,2,3-triazol-4-yl)(3-oxoisoindolin-4-yl)methyl)amino)-4-(neopentylamino)quinoline-3-carbonitrile] are 3 nM and 332 nM.
For the compound `Cc1ccc([C@H](Nc2cc(C#N)c3ncc(C#N)c(NCC(C)(C)C)c3c2)c2cn(C3(C(F)F)CC3)nn2)c(C)n1` [Example 829, (S)-6-(((1-(1-(difluoromethyl)-cyclopropyl)-1H-1,2,3-triazol-4-yl)(2,6-dimethylpyridin-3-yl)methyl)amino)-4-(neopentylamino)quinoline-3,8-dicarbonitrile], the IC50 in assay [1] (IC50 HTRF, Cot HTRF (TR-FRET KinEASE) biochemical assay, 400 μM ATP) came out at 4 nM. Besides, in assay [2] (Homo sapiens, Monocyte, read-out: EC50 TNF, LPS-stimulated human monocytes, TNFα TR-FRET), the EC50 was determined as 66 nM.
In turn, `CC(C)(C)CNc1c(C#N)cnc2c(Cl)cc(N[C@H](c3cn(C4(C(F)F)CC4)nn3)c3cccn4nccc34)cc12` [Example 538, (S)-8-chloro-6-(((1-(1-(difluoromethyl)-cyclopropyl)-1H-1,2,3-triazol-4-yl)(pyrazolo[1,5-a]pyridin-4-yl)methyl)amino)-4-(neopentylamino)-quinoline-3-carbonitrile] displayed a 50% inhibitory concentration (IC50) in assay [1] (setting [3]) of 5 nM. Further, the EC50 in assay [2] (setting [4]) was 109 nM.
`[2H]C([2H])([2H])n1ccc2c([C@H](Nc3cc(Cl)c4ncc(C#N)c(NCC(C)(C)C)c4c3)c3cn(C45CC(C4)C5)nn3)cccc2c1=O` [Example 711, (S)-6-(((1-(bicyclo[1.1.1]pentan-1-yl)-1H-1,2,3-triazol-4-yl)(2-(methyl-d3)-1-oxo-1,2-dihydroisoquinolin-5-yl)methyl)amino)-8-chloro-4-(neopentylamino)quinoline-3-carbonitrile] gave an IC50 in assay [1] (setting [3]) of 2 nM. In addition, the EC50 in assay [2] (setting [4]) was found to be 32 nM.
On the same counts, the results for `Cc1nc(Cl)ccc1[C@H](Nc1cc(Cl)c2ncc(C#N)c(NCC(C)(C)C)c2c1)c1cn(C2(C(F)F)CC2)nn1` [Example 718, (S)-8-chloro-6-(((6-chloro-2-methylpyridin-3-yl)(1-(1-(difluoromethyl)cyclopropyl)-1H-1,2,3-triazol-4-yl)methyl)amino)-4-(neopentylamino)quinoline-3-carbonitrile] are 9 nM and 112 nM.
The like results for `[2H]c1c([C@@H](Nc2cc(C#N)c3ncc(C#N)c(NCC(C)(C)C)c3c2)c2ccc(F)nc2C)nnn1C1(C(F)(F)F)CC1` [Example 574, (S)-6-(((6-fluoro-2-methylpyridin-3-yl)(1-(1-(trifluoromethyl)cyclopropyl)-1H-1,2,3-triazol-4-yl-5-d)methyl)amino)-4-(neopentylamino)quinoline-3,8-dicarbonitrile] were, in that order, 4 nM and 86 nM.
On the same counts, the results for `Cn1ccc2c([C@H](Nc3cc(Cl)c4ncc(C#N)c(NCC(C)(C)C)c4c3)c3cn(C45CC(C4)C5)nn3)cccc2c1=O` [Example 713, (S)-6-(((1-(bicyclo[1.1.1]pentan-1-yl)-1H-1,2,3-triazol-4-yl)(2-methyl-1-oxo-1,2-dihydroisoquinolin-5-yl)methyl)amino)-8-chloro-4-(neopentylamino)quinoline-3-carbonitrile] are 2 nM and 21 nM.
Compound `N#Cc1cnc2c(Cl)cc(N[C@H](c3c[nH]nn3)c3ccc(F)nc3F)cc2c1Nc1cnc(F)c(F)c1` [Example 154, (S)-8-chloro-6-(((2,6-difluoropyridin-3-yl)(1H-1,2,3-triazol-4-yl)methyl)amino)-4-((5,6-difluoropyridin-3-yl)amino)quinoline-3-carbonitrile] registered an IC50 in assay [1] (setting [3]) of 26 nM. The EC50 in assay [2] (setting [4]) stood at 1670 nM.
On the same counts, the results for `CCN1Cc2cccc([C@H](Nc3cc(Cl)c4ncc(C#N)c(Nc5ccc(F)c(Cl)c5)c4c3)c3c[nH]nn3)c2C1` [Example 54, (S)-8-chloro-4-((3-chloro-4-fluorophenyl)amino)-6-(((2-ethylisoindolin-4-yl)(1H-1,2,3-triazol-4-yl)methyl)amino)quinoline-3-carbonitrile] are 11 nM and 652 nM.
On the same counts, the results for `Cc1nc(F)ccc1[C@H](Nc1cc(Cl)c2ncc(C#N)c(NCC(C)(C)C)c2c1)c1cn(C2(C#N)CCC2)nn1` [Example 479, (S)-8-chloro-6-(((1-(1-cyanocyclobutyl)-1H-1,2,3-triazol-4-yl)(6-fluoro-2-methylpyridin-3-yl)methyl)amino)-4-(neopentylamino)quinoline-3-carbonitrile] are 5 nM and 78 nM.
On the same counts, the results for `N#Cc1cnc2c(Cl)cc(N[C@@H](c3cccnc3)c3cn(CCF)nn3)cc2c1Nc1cnc(F)c(F)c1` [Example 189, (S)-8-chloro-4-((5,6-difluoropyridin-3-yl)amino)-6-(((1-(2-fluoroethyl)-1H-1,2,3-triazol-4-yl)(pyridin-3-yl)methyl)amino)quinoline-3-carbonitrile] are 8 nM and 1060 nM.
Turning to `CC(C)(C)CNc1c(C#N)cnc2c(C#N)cc(N[C@H](c3cn(C4CC4)nn3)c3cccc4cnccc34)cc12` [Example 468, (S)-6-(((1-cyclopropyl-1H-1,2,3-triazol-4-yl)(isoquinolin-5-yl)methyl)amino)-4-(neopentylamino)quinoline-3,8-dicarbonitrile], the IC50 in assay [1] (setting [3]) was found to be 1 nM. Further, the 50% effective concentration (EC50) in assay [2] (setting [4]) is 18 nM.
Turning to `CC(C)(C)CNc1c(C#N)cnc2c(C#N)cc(N[C@H](c3cn(C4(C)CC4)nn3)c3cccc4cnccc34)cc12` [Example 581, (S)-6-((isoquinolin-5-yl(1-(1-methylcyclo-propyl)-1H-1,2,3-triazol-4-yl)methyl)amino)-4-(neopentylamino)quinoline-3,8-dicarbonitrile], the midpoint of inhibition in assay [1] (setting [3]), the IC50, lay at 2 nM. Further, in assay [2] (setting [4]), the EC50 worked out at 32 nM.
On the same counts, the results for `[2H][C@](Nc1cc(Cl)c2ncc(C#N)c(N[C@H](CC#N)c3ccccc3)c2c1)(c1ccc(F)nc1)c1cn(C2CC2)nn1` [Example 129, 8-chloro-4-(((R)-2-cyano-1-phenylethyl)amino)-6-(((S)-(1-cyclopropyl-1H-1,2,3-triazol-4-yl)(6-fluoropyridin-3-yl)methyl-d)amino)quinoline-3-carbonitrile] are 2 nM and 81 nM.
The like results for `Cn1ccc2c([C@H](Nc3cc(Cl)c4ncc(C#N)c(NCC(C)(C)C)c4c3)c3cn(C4(C)CC4)nn3)cccc2c1=O` [Example 776, (S)-8-chloro-6-(((2-methyl-1-oxo-1,2-dihydroisoquinolin-5-yl)(1-(1-methylcyclopropyl)-1H-1,2,3-triazol-4-yl)methyl)amino)-4-(neopentylamino)quinoline-3-carbonitrile] were, in that order, 2 nM and 24 nM.
On the same counts, the results for `Cc1nc(F)ccc1[C@H](Nc1cc(C#N)c2ncc(C#N)c(NCC(C)(C)C)c2c1)c1cn(C2(C#N)CC2)nn1` [Example 489, (S)-6-(((1-(1-cyanocyclopropyl)-1H-1,2,3-triazol-4-yl)(6-fluoro-2-methylpyridin-3-yl)methyl)amino)-4-(neopentylamino)-quinoline-3,8-dicarbonitrile] are 2 nM and 129 nM.
On to `CC(C)(C)CNc1c(C#N)cnc2c(C#N)cc(N[C@H](c3cn(C4(C(N)=O)CC4)nn3)c3cccc4ncccc34)cc12` [Example 575, (S)-1-(4-(((3,8-dicyano-4-(neopentylamino)-quinolin-6-yl)amino)(quinolin-5-yl)methyl)-1H-1,2,3-triazol-1-yl)cyclopropane-1-carboxamide], for which the IC50 in assay [1] (setting [3]) was 1 nM. The EC50 in assay [2] (setting [4]) amounted to 974 nM.
